Results from PubChem BioAssay AID1794802 (Yongcheng Song lab at Baylor College of Medicine, 2022).
Active and inactive are the calls of the source.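 Rule for the calls: active = EC50 under 50 µM in a live-cell viability test; inactive = the rest.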

System: Molm13 AML cells, XTT viability
Test: growth inhibition of Molm13 leukemia cells, dose response, AHD inhibitor project, cell-based, XTT viability (AID 1794802)

| SMILES | EC50 |
| --- | --- |
| NC(=O)c1ccc(-c2ccc3cc(C(=O)NCC4CCNCC4)sc3c2)cc1 | > 51 µM (inactive) |
| O=C(NCC1CCNCC1)c1c[nH]c2cc(-c3ccc(N4CCCCC4)cc3)ccc12 | 29 µM |
| NCc1ccc(-c2ccc3cc(C(=O)NCC4CCNCC4)oc3c2)cc1 | > 51 µM (inactive) |
| O=C(NCC1CCNCC1)c1cc2ccc(-c3ccc(N4CCCC4)cc3)cc2s1 | 9.4 µM |
| O=C(NCC1CCNCC1)c1cc2cc(-c3cn[nH]c3)ccc2[nH]1 | > 51 µM (inactive) |
| O=C(NCC1CCNCC1)c1cc2ccc(-c3ccc(N4CCCCC4)cc3)cc2s1 | 4.7 µM |

Now from value to compound:

| EC50 | SMILES |
| --- | --- |
| 10 µM | O=C(NCC1CCNCC1)c1cc2cc(-c3ccc(N4CCCCC4)cc3)ccc2[nH]1 |
| 5.1 µM | O=C(NCC1CCNCC1)c1cc2cc(-c3ccc(N4CCCCC4)cc3)ccc2s1 |
| 13 µM | O=C(NCC1CCNCC1)c1coc2cc(-c3ccc(N4CCCCC4)cc3)ccc12 |
| 50 µM | O=C(NCC1CCNCC1)c1c[nH]c2cc(-c3ccc(N4CCCC4)cc3)ccc12 |
